In patent publication US9775895B2, “HIV therapeutics and methods of making and using same” (priority 2012, dated 2017):
Non-standard residues stand in square brackets, D forms with d. Residues, ends and D or L forms follow the SMILES beside them. No end group written: not given here. sY = N[C@@H](Cc1ccc(OS(=O)(=O)O)cc1)C(=O)O

Experiments:
[1] = tested on: HIV-1 BaL; type: cell-based; conditions: acute infection, primary human CD4+ T cells; read-out: half maximal inhibitory concentration (IC50) for infection by HIV-1 BaL
From the text: (§1) FIGS. 3A-3H are a series of graphs illustrating that a tyrosine-sulfated peptide containing the V2 α-helix binds to gp120, competes with an anti-CCR5-binding site antibody for HIV-1 virion binding, and blocks HIV-1 entry, infection and fusion. (A) Effect of tyrosine-sulfated V2-loop (pV2α-Tys) and CCR5 N-terminus (pCCR5-Tys) mimetic peptides on HIV-1 virion capture by mAb 412d, a sulfated mAb directed to the CCR5-binding site at the base of V3. Unsulfated homologous peptides (pV2α and pCCR5) were tested in parallel as controls. Infectious viral stocks from HIV-1 BaL were pre-treated with the peptides (each at 50 μM) and then incubated with immunomagnetic beads armed with mAb 412d; beads armed with mAb 2G12 (directed to a glycan-dependent epitope on the gp120 outer domain) were used in parallel as a control. Asterisks denote significant differences with the untreated control (p<0.05 by unpaired Student's t test). (B) Dose-dependent effect of peptides pV2α and pV2α-Tys on cell-free infection by HIV-1 BaL in primary CD4^+ T cells. […] (F) Binding of gp120 to immobilized peptide pV2α as assessed by surface plasmon resonance analysis. […] (H) Comparison between the experimentally determined V3 interaction of the tyrosine sulfated CDRH3 region of mAb 412d and the modeled V3 interaction of a tyrosine sulfated peptide derived from the central region of V2. […]

[2] = tested on: primary CD4+ T cells; assay: Cell viability of primary CD4+ T cells by timed flow cytometry counting; type: cell-based, human; conditions: activated primary CD4+ T cells cultured 7 days
Description: FIG. 9 is a graph illustrating the effect of V2-derived peptides pV2α and pV2α-Tys on viability of primary CD4^+ T cells. Purified human peripheral blood CD4^+ T cells previously activated in vitro with phytohemagglutinin and IL-2 were treated with each peptide at the indicated concentrations and cultured for 7 days. Cell viability was measured by quantitative counting using timed flow cytometry on a FACSCanto II.
HIV-1 isolates, infection, entry and cell viability assays. Details about the HIV-1 isolates used in the this study, the infection assay, the entry assay and the cell viability assay have been reported previously (Auerbach et al., Proc Natl Acad Sci USA 109, 9569-9574, 2012).

[3] = biological target: T1, recombinant soluble CD4 (Homo sapiens, UniProt P01730); assay: Surface plasmon resonance, soluble CD4 binding to immobilized biotinylated peptide; conditions: koff-KD distribution model
T1 construct: recombinant soluble CD4 was flown over the chip
Description: FIG. 12 is a graph illustrating binding of recombinant soluble CD4 to peptide pV2α. The biotinylated peptide was bound to a neutravidin-coated CM3 sensor chip and recombinant soluble CD4 was flown over the chip in the liquid phase. Experimental binding traces were recorded for sCD4 (at the concentration of […]) binding to 235 RU pV2α at a flow rate of […]; best fit traces (red lines) were derived from modeling with koff−KD distribution. (Lower graphs) Residuals of the fit, which has an rmsd of 0.47 RU shown twice on different scales to facilitate their critical inspection.
Binding of recombinant soluble CD4 to peptide pV2α was evaluated by surface plasmon resonance (FIG. 12). The biotinylated peptide was bound to a neutravidin-coated sensor chip and recombinant soluble CD4 was flown over the chip in the liquid phase. Experimental binding traces were recorded for sCD4 (at the concentration of […]) binding to 235 RU pV2α at a flow rate of […]; best fit traces (red lines) were derived from modeling with koff−KD distribution.

[4] = biological target: T2, recombinant soluble gp120 (isolate YU2) (Human immunodeficiency virus type 1 group M subtype B, UniProt P35961); assay: Surface plasmon resonance, gp120 binding to immobilized biotinylated peptide; parameters: species or system HIV-1
T2 construct: recombinant soluble gp120 (isolate YU2)
From the text: Binding of gp120 to immobilized peptide pV2α as assessed by surface plasmon resonance analysis (FIG. 3F). The biotinylated peptide was bound to a neutravidin-coated CM3 sensor chip and recombinant soluble gp120 (isolate YU2) was flown over the chip in the liquid phase. […] Residuals of the fit, which has an RMSD of 0.62 RU shown twice on different scales to facilitate their critical inspection (lower two graphs).

[5] = tested on: HeLa and HEK293 cells; assay: Viability of cell lines by timed flow cytometry counting; type: cell-based; conditions: 30 mM, 72 hrs
Description: FIGS. 2L-2O illustrate the different efficiency of V2 tyrosine sulfation in recombinant gp120 produced in epithelial cell lines versus virion-associated gp120 produced by primary CD4^+ T cells. (L) Detection of sulfated tyrosines by Western blot in recombinant gp120 produced in CHO cells. (M) Lack of adverse effects of sodium chlorate treatment or TPST2 overexpression on the viability of HeLa and HEK293 cells. The cell lines were treated with 30 mM sodium chlorate (NaClO3) or transfected with a plasmid vector expressing TPST2 and cultured for 72 hrs. Cell viability was measured by quantitative counting using timed flow cytometry on a FACSCanto II and is expressed as percent viable cell recovery. (N) Side-by-side comparison of the extent of tyrosine sulfation detected by Western blot in a reference sulfated mAb (412d), in virion-associated gp120 produced by infected primary human CD4^+ T cells (V-gp120), and in recombinant gp120 produced in HEK293 cells (R-gp120). Identical amounts of mAb 412d and purified gp120 were loaded on the gels. For V-gp120, the protein was immunoprecipitated directly from the infectious viral stocks. The antibodies used for Western blots and the methods used for relative quantification were the same as in (L). […]

[6] = tested on: gp120 tyrosine sulfation (sulfotransferases); assay: Western blot of tyrosine sulfation in recombinant gp120 produced in CHO cells; type: cell-based; conditions: 30 mM; recombinant gp120 BaL
[7] = tested on: HIV-1 BaL ΔV2 gp160; assay: Fusion neutralization of HIV-1 BaL ΔV2 with or without NaClO3 pre-treatment; type: cell-based; conditions: 30 mM, 72 hrs pre-treatment
[8] = tested on: gp120 (BaL) binding to mAb F105; assay: Surface plasmon resonance, peptide effect on gp120 binding to control mAb F105; parameters: species or system HIV-1; conditions: peptide at 166 μM; specificity control
Description: (§2) The interaction of the tyrosine-sulfated V2 peptide with the 412d-binding site was further characterized by surface plasmon resonance (SPR).
(§3) Surface plasmon resonance. Recombinant gp120 from HIV-1 BaL (at 100 nM) obtained from the NIH AIDS Reagent Program was pre-incubated with or without a 2-fold molar excess of two-domain sCD4 (at 200 nM) and passed over a Biacore CM5 sensor surface in the presence or absence of the indicated peptides (at 166 μM) for 2 min at 25 μl/min in HBS supplemented with 3 mM EDTA and 0.005% Tween-20 followed by a 2 min dissociation phase using a Biacore 3000 biosensor (Biacore, Inc.). Surfaces were regenerated after each cycle by a brief injection of 4.5M MgCl2.

[9] = tested on: CD4-activated gp120 (BaL) binding to mAb 412d; assay: Surface plasmon resonance, peptide effect on gp120 binding to immobilized mAb 412d; parameters: species or system HIV-1; conditions: peptide at 166 μM; gp120 BaL 100 nM with sCD4
Description: as §2, §3

[10] = tested on: HIV-1 BaL virions captured by mAb 412d (CCR5-binding site at the base of V3); assay: HIV-1 virion-capture assay with mAb 412d-armed immunomagnetic beads; conditions: peptides at 50 μM; virions pre-treated with sCD4 5 μg/ml
From the text: as §1

**Q.** How did the IC50 [1] turn out when `CC[C@H](C)[C@H](NC(=O)[C@H](CC(=O)O)NC(=O)[C@H](CC(C)C)NC(=O)[C@H](CCC(=O)O)NC(=O)[C@H](Cc1ccc(OS(=O)(=O)O)cc1)NC(=O)[C@H](Cc1ccccc1)NC(=O)[C@H](CC(C)C)NC(=O)[C@H](C)NC(=O)[C@H](Cc1ccc(OS(=O)(=O)O)cc1)NC(=O)[C@H](CCC(=O)O)NC(=O)[C@H](CCCCN)NC(=O)[C@H](CCC(N)=O)NC(=O)[C@@H](NC(=O)[C@@H](N)CCCCN)C(C)C)C(=O)N[C@H](C(=O)N1CCC[C@H]1C(=O)N[C@H](C(=O)N[C@@H](CC(=O)O)C(=O)O)[C@@H](C)CC)C(C)C` [pV2α-Tys] (H-KVQKE[sY]ALF[sY]ELDIVPID-OH) was run?
**A.** The IC50 was 15 µM.

**Q.** What about the “effect on cell viability” value [2] of the same compound?
**A.** Its value is “no negative effects”.

**Q.** Which koff [3] does the source give for `CC[C@H](C)[C@H](NC(=O)[C@H](CC(=O)O)NC(=O)[C@H](CC(C)C)NC(=O)[C@H](CCC(=O)O)NC(=O)[C@H](Cc1ccc(O)cc1)NC(=O)[C@H](Cc1ccccc1)NC(=O)[C@H](CC(C)C)NC(=O)[C@H](C)NC(=O)[C@H](Cc1ccc(O)cc1)NC(=O)[C@H](CCC(=O)O)NC(=O)[C@H](CCCCN)NC(=O)[C@H](CCC(N)=O)NC(=O)[C@@H](NC(=O)[C@@H](N)CCCCN)C(C)C)C(=O)N[C@H](C(=O)N1CCC[C@H]1C(=O)N[C@H](C(=O)N[C@@H](CC(=O)O)C(=O)O)[C@@H](C)CC)C(C)C` [pV2α] (H-KVQKEYALFYELDIVPID-OH) here?
**A.** The koff was 0.013 s⁻¹.

**Q.** What about the Kd [4] of the same compound?
**A.** The Kd was 0.0009 µM.

**Q.** What about the koff ([4]; read-out: koff of gp120 binding to immobilized peptide) of the same compound?
**A.** Its koff is 6.4e-05 s⁻¹.

**Q.** And the “effect on cell viability” value [2]?
**A.** Its value is “no negative effects”.

**Q.** With `[Na+].[O-][Cl+2]([O-])[O-]` [sodium chlorate] as the compound, how does the “effect on cell viability” value [5] read?
**A.** The value was “no negative effects”.

**Q.** What about the “effect on cell viability” value ([5]; listed as NaClO3) of the same compound?
**A.** The value was “no adverse effects”.

**Q.** What about the “effect on gp120 tyrosine sulfation” value [6] of the same compound?
**A.** Its value is “totally abrogated gp120 sulfation”.

**Q.** And the “effect on neutralization sensitivity of HIV-1 BaL ΔV2” value [7]?
**A.** The value was “nor did it alter”.

**Q.** How did the “inhibition of gp120 binding to mAb F105” value [8] turn out when “pCCR5-Tys: tyrosine-sulfated peptide derived from the CCR5 N-terminus (DYQVSSPIYDINYYTSE; also: tyrosine-sulfated, sites not given here)” was run?
**A.** Its value is “lack of inhibition”.

**Q.** What about the “inhibition of binding of surface-bound mAb 412d to CD4-activated gp120” value [9] of the same compound?
**A.** The value was “blocked”.

**Q.** And the “inhibition of virion capture by mAb 412d” value [10]?
**A.** The value was “specifically inhibited”.
